# Results from patent US8642621B2, “(4-phenyl-piperidin-1-yl)-[5-(1H-pyrazol-4-yl)-thiophen-3-yl]-methanone compounds and their use” (The University Of Edinburgh, priority 2009, dated 2014).
# Read-outs that look alike come from different tables or passages of the source.
# Assays:
# human 11β-HSD1 enzyme = biological target: T1, human 11β-HSD1 enzyme (Homo sapiens, UniProt P28845); test: Cellular in vitro 11β-HSD1 enzyme inhibition assay (SPA, HEK293/11β-HSD1 cells); format: cell-based; conditions: read-out: IC50 for 11β-HSD1 (HEK293)
# T1 construct: stably transfected with a construct containing the full-length gene coding for the human 11β-HSD1 enzyme; expressed in transfected cells; HEK293/11β-HSD1 cells)
# T1 sequence (P28845 whole entry): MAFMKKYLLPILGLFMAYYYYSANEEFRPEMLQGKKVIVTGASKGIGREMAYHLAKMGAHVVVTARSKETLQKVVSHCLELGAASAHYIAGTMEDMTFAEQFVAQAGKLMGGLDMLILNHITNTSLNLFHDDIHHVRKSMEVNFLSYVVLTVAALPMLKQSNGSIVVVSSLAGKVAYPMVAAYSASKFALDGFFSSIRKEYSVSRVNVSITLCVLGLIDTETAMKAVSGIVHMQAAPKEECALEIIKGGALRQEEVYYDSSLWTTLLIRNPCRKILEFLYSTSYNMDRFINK
# Experimental: Cellular In Vitro 11β-HSD1 Enzyme Inhibition Assay
# Compounds were assessed by a Scintillation Proximity Assay (SPA) performed according to the following protocol:
# HEK293 cells were stably transfected with a construct containing the full-length gene coding for the human 11β-HSD1 enzyme to create HEK293/11β-HSD1 cells. Cells were routinely cultured in DMEM containing 10% calf foetal serum, 1% glutamine, and 1% penicillin and streptomycin. Prior to assay, cells were plated at 2×10^4 cells/well in 96-well poly-D-Lys coated flat-bottomed microplates and incubated in 5% CO2, 95% O2 at 37° C. for 24 hours. The media in each well was removed immediately before assay.
# Compounds to be tested were dissolved in DMSO at 10 mM and serially diluted into water containing 10% DMSO. Diluted compounds at a volume of 10 μL were added to wells of a 96-well V-bottomed microplate. A solution of DMEM, 1% glutamine, 1% penicillin and streptomycin, and 22 nM tritiated cortisone was prepared and 90 μL added to each well of the assay plate. This solution (100 μL/well) was transferred to the plate containing the cells. The plate was then incubated in 5% CO2, 95% O2 at 37° C. for 2 hours.
# Following this incubation, 50 μL of the assay solution was transferred to each well of a 96-well scintillation microplate. A mixture consisting of anti-mouse YSi SPA beads, pre-mixed with anti-cortisol antibody in assay buffer (50 mM Tris.HCl, pH 7.0; 300 mM NaCl; 1 mM EDTA, 5% glycerol) was prepared and 50 μL added to each well of the scintillation microplate. An adhesive strip was applied to the microplate and the plate gently shaken for at least 2 hours at room temperature, and then spun briefly on a low speed centrifuge. The plate was read on a scintillation counter suitable for 96-well microplates. For the calculation of percentage inhibition, a series of wells were added to the plate that represented the assay maximum and the assay minimum: one set that contained substrate without cells (minimum) and another set that contained substrate and cells without any compound (maximum).
# The calculation of median inhibitory concentration (IC50) values for the compounds was performed using GraphPad Prism® software. Dose-response curves for each compound were plotted as fractional inhibition and data fitted to the four parameter logistic equation.
# [1] = In vitro human liver microsomal stability assay; format: in vitro ADME; conditions: human liver microsomes
# Experimental: In Vitro Human Liver Microsomal Stability Assay
# To predict in vivo metabolism of compounds, the stability of compounds incubated with human liver microsomes in vitro was determined. Human liver microsome preparations were stored at −80° C. and thawed on ice prior to use. The thawed microsomes were diluted to a concentration of 2 mg/mL in 50 mM sodium phosphate, pH 7.4. Reference and test compounds were prepared as 10 mM stocks in 100% DMSO and diluted to 1 mM in acetonitrile before use. Each compound was tested in triplicate as follows:
# 4 μL of test or reference compound was added to a well of a 24-well microplate and 0.5 mL of 4 mM NADPH added. The plate was then transferred to a shaker for 10 minutes at room temperature. 30 μL of the compound/NADPH solution was transferred to the well of a 96-well microplate and incubated at 37° C. for 5 minutes. 30 μL of human liver microsomes (pre-incubated at 37° C. for 5 minutes) was added to the well containing the compound/NADPH solution and the plate incubated for the selected period of time (typically 0 or 30 minutes). The reaction was stopped by adding 60 μL of ice cold […] trichloroacetic acid. The plate was centrifuged at 1000 rpm for 5 minutes at room temperature and the supernatant transferred to the well of a new 96-well v-bottomed microplate for mass spectrometric analysis.
# Samples were analyzed by TSQ Quantum Discovery Tandem Mass Spectrometer and Surveyor Liquid Chromatogram (Thermo, Hemel-Hempstead, UK). 10 μL of each sample was injected in a mobile phase consisting of 60%:40% methanol:5 mM ammonium acetate at a flow rate of 0.5 mL/minute. The column used was a BDS hypersil, C18, 50×2.1 mm with a 5 μm particle size.
# Each compound was tuned with a spray voltage of 3000 V and a capillary temperature of 300° C. and values for tube lens, CID and product ions were determined.
# The peak area for each compound was measured in triplicate for the 0 and 30 minute samples and the average of each was reported. The percentage remaining after 30 minutes was calculated as the average peak area of the sample after 30 minutes divided by the average peak area at 0 minutes. The RSD was 10% or lower for each compound.
# human 11β-HSD2 = biological target: T2, human 11β-HSD2 (Homo sapiens, UniProt P80365); test: Cellular in vitro 11β-HSD2 enzyme inhibition assay (CHO cells); format: cell-based; conditions: CHO cells stably transfected with human 11β-HSD2; Table 1
# T2 construct: CHO cells stably transfected with the full-length gene coding for human 11β-HSD2 were used; expressed in transfected cells
# T2 sequence (P80365 1-405): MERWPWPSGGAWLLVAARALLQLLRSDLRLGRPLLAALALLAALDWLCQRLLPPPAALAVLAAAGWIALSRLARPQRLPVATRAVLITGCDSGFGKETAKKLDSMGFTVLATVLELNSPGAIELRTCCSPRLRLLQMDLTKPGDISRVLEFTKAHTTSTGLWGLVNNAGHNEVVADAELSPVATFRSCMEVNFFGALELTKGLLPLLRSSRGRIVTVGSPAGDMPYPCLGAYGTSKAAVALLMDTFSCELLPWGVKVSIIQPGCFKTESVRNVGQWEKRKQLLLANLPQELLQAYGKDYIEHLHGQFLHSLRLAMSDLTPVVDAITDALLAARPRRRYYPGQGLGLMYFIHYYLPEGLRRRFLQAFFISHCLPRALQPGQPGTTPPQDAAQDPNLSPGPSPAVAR
# Experimental: Cellular In Vitro 11β-HSD2 Enzyme Inhibition Assay
# Assays were carried out in 96-well microplates containing 1×10^5 cells/well. Controls and compounds were plated as above, so that the final DMSO concentration in each well was 1%. To initiate the assay, 90 μL of a solution of HAMS F-12 medium containing 1% glutamine, 1% penicillin and streptomycin, and 22 nM tritiated cortisol was added to each well of the assay plate. The plate was then incubated in 5% CO2, 95% O2 at 37° C. for 16 hours.
# The assay solutions were transferred to glass tubes and 20 μL ethyl acetate added to each tube. Each tube was vortexed thoroughly and the upper layer containing the tritiated steroid transferred to a fresh glass tube. The solvent was evaporated by placing the tubes in a heating block at 65° C. under a stream of Nitrogen gas. 20 μL ethanol was added to each of the dried samples and vortexed briefly. Each sample was applied to a silica TLC plate and the plate dried. The plate was placed vertically in a glass tank containing 92% chloroform:8% ethanol and the solvent allowed to rise up the plate. The plate was dried, placed in an imaging cassette, and overlayed with a tritium imaging plate for 1-2 days. The amount of enzyme inhibition in each sample was determined by measuring the intensity of the substrate and product spots using a phosphoimager.
# IC50 values for inhibitors were determined as described for 11β-HSD1.
# Pharmacokinetics in rat = format: in vivo, male Sprague Dawley rats; conditions: male, Sprague Dawley, whole blood, intravenous 1 mg/kg and oral 10 mg/kg, read-out: % F (% Bioavailability)
# Experimental: The pharmacokinetics of certain compounds were determined following intravenous (1 mg/kg) and oral (10 mg/kg) administration to male Sprague Dawley rats. Dosing solution was prepared by mixing each compound with 2% DMSO, 38% PEG-400 and 60% (0.9%) NaCl. Solutions were passed through 0.2 μm filters prior to administration.
# Following dosing and at appropriate time points, blood samples were taken from a lateral tail vein and transferred into a tube pre-treated with EDTA. Blood samples were analysed for parent compound by LCMS and the quantity of parent compound remaining determined. Non-compartmental analysis was applied to the data using WinNonlin™ software to determine the pharmacokinetic parameters for each compound.
# [2] = HEK293 cells stably transfected with human 11β-HSD1, Table 1
SMILES,IC50 (human 11β-HSD1 enzyme) [nM],% Parent Remaining at 30 min [1],IC50 (human 11β-HSD1 enzyme; [2]) [nM],IC50 (human 11β-HSD2) [nM],bioavailability (Pharmacokinetics in rat) [%]
O=C(c1csc(-c2cn[nH]c2)c1)N1CCC(O)(c2ccc(F)cc2)CC1 [AA-05],≤ 500,+++ (61-100% +++),–,–,–
O=C(c1csc(-c2cn[nH]c2)c1)N1CCC(O)(c2ccc(F)cc2Cl)CC1 [AA-12],≤ 500,–,99,> 10000,–
O=C(c1csc(-c2cn[nH]c2)c1)N1CCC(O)(c2ccc(Cl)cc2)CC1 [AA-02],≤ 500,+++ (61-100% +++),–,–,31 to 100
CC1(c2ccccc2)CCN(C(=O)c2csc(-c3cn[nH]c3)c2)CC1 [AA-16],≤ 500,+ (0-30% +),–,–,–
O=C(c1csc(-c2cn[nH]c2)c1)N1CCC(O)(c2ccccc2Cl)CC1 [AA-08],≤ 500,++ (31-60% ++),10,> 10000,31 to 100
O=C(c1csc(-c2cn[nH]c2)c1)N1CCC(O)(c2ccccc2F)CC1 [AA-04],≤ 500,+++ (61-100% +++),44,> 10000,31 to 100
O=C(c1csc(-c2cn[nH]c2)c1)N1CCC(F)(c2ccccc2)CC1 [AA-17],500 to 1000,+++ (61-100% +++),–,–,31 to 100
O=C(c1csc(-c2cn[nH]c2)c1)N1C2CCC1CC(O)(c1ccccc1Cl)C2 (centres unmarked) [AA-30],≤ 500,++ (31-60% ++),15,> 10000,–
O=C(c1csc(-c2cn[nH]c2)c1)N1C2CCC1CC(c1ccccc1)C2 (centres unmarked) [BB-08],≤ 500,++ (31-60% ++),114,> 10000,–
"O=C(c1csc(-c2cn[nH]c2)c1)N1CCC(O)(c2ccccc2)CC1 [AA-01, (4-Hydroxy-4-phenyl-piperidin-1-yl)-[5-(1H-pyrazol-4-yl)-thiophen-3-yl]-methanone]",≤ 500,+++ (61-100% +++),208,> 10000,31 to 100
O=C(c1csc(-c2cn[nH]c2)c1)N1CCC(O)(c2ccc(Cl)cc2F)CC1 [AA-07],≤ 500,+++ (61-100% +++),–,–,–
O=C(c1csc(-c2cn[nH]c2)c1)N1CCC(F)(c2cc(F)ccc2Cl)CC1 [AA-37],≤ 500,++ (31-60% ++),35,> 10000,–
Cc1cccc(F)c1C1(O)CCN(C(=O)c2csc(-c3cn[nH]c3)c2)CC1 [AA-22],≤ 500,+++ (61-100% +++),38,> 10000,–
O=C(c1csc(-c2cn[nH]c2)c1)N1CCC(F)(c2ccccc2Cl)CC1 [AA-36],≤ 500,+ (0-30% +),42,> 10000,–
O=C(c1csc(-c2cn[nH]c2)c1)N1CCC(F)(c2ccccc2F)CC1 [AA-18],≤ 500,++ (31-60% ++),104,> 10000,–
O=C(c1csc(-c2cn[nH]c2)c1)N1CCC(O)(c2ccc(F)cc2F)CC1 [AA-09],≤ 500,+++ (61-100% +++),–,–,–
COC1(c2ccccc2Cl)CCN(C(=O)c2csc(-c3cn[nH]c3)c2)CC1 [AA-33],≤ 500,+ (0-30% +),19,> 10000,–
COC1(c2ccccc2)CCN(C(=O)c2csc(-c3cn[nH]c3)c2)CC1 [AA-15],≤ 500,++ (31-60% ++),110,> 10000,–

# Other lines, results leading:
IC50 (human 11β-HSD1 enzyme) [nM],% Parent Remaining at 30 min [1],IC50 (human 11β-HSD1 enzyme; [2]) [nM],IC50 (human 11β-HSD2) [nM],bioavailability (Pharmacokinetics in rat) [%],SMILES
≤ 500,++ (31-60% ++),–,–,–,O=C(c1csc(-c2cn[nH]c2)c1)N1CCC(c2cccc(F)c2)CC1 [BB-05]
≤ 500,++ (31-60% ++),–,–,–,N#Cc1ccccc1C1CCN(C(=O)c2csc(-c3cn[nH]c3)c2)CC1 [BB-04]
500 to 1000,+++ (61-100% +++),–,–,–,O=C(c1csc(-c2cn[nH]c2)c1)N1CCC(c2ccc(Cl)cc2)CC1 [BB-06]
≤ 500,+ (0-30% +),107,> 10000,–,COc1ccccc1C1CCN(C(=O)c2csc(-c3cn[nH]c3)c2)CC1 [BB-03]
500 to 1000,–,638,> 10000,–,Cc1n[nH]cc1-c1cc(C(=O)N2CCC(c3ccccc3)CC2)cs1 [BB-11]
500 to 1000,+++ (61-100% +++),–,–,–,O=C(c1csc(-c2cn[nH]c2)c1)N1CCC(c2ccc(F)cc2)CC1 [BB-01]
500 to 1000,+++ (61-100% +++),–,–,–,O=C(c1csc(-c2cn[nH]c2)c1)N1CCC(c2ccccc2C(F)(F)F)CC1 [BB-13]
≤ 500,+ (0-30% +),–,–,–,O=C(c1csc(-c2cn[nH]c2)c1)N1CCC(c2ccccc2F)CC1 [BB-07]
